{
  "source": "patent US10836792B2",
  "about": "“Retro-inverso peptide inhibitors of cell migration, extracellular matrix and endothelial invasion by tumor cells” (ISTITUTO NAZIONALE TUMORI IRCCS “FONDAZIONE G. PASCALE”, priority 2016, dated 2020)",
  "key": {"[1]": {"test_system": "ovarian carcinoma SKOV-3 cells", "assay": "Matrigel invasion (xCELLigence RTCA), SKOV-3", "assay_type": "cell-based, human", "conditions": "10 nM, 20 hrs", "procedure": "(§1) FIG. 8 At the concentration of 10 nM the retro-inverso peptide RI-3 prevents matrigel invasion of tumor cells from human osteosarcoma Saos-2 (A), chondrosarcoma Sarc (B), melanoma A375 (C), metastatic melanoma A375M6 (D), ovarian carcinoma SKOV-3 cells (E), or primary ovarian cancer cells derived from a tumor excision (OV-53) (F), as monitored in real-time for 20 hr as changes in cell index by the xCELLigence RTCA system (Example 8).\n(§2) To investigate the ability of RI-3 to prevents matrigel invasion of tumor cells form different tissue origins, human osteosarcoma Saos-2 (A), chondrosarcoma Sarc (B) melanoma A375 (C), metastatic melanoma A375M6 (D), ovarian carcinoma SKOV-3 cells (E) or primary ovarian cancer cells derived from a tumor excision (OV-53) (F) were seeded on polymerized matrigel and allowed to invade matrigel in the absence (None) or in the presence of 10 nM RI-3. Cell invasion was monitored in real-time for 20 hrs as changes in cell index by the xCELLigence RTCA system. Data represent mean±SD from quadruplicate experiments. All cell lines were able to cross matrigel, although to a different extent. In all case RI-3 reduced matrigel invasion by about 30%, 31%, 64%, 57%, 53% and 68%, of Saos-2, Sarc, A375, A375M6, SKOV-3 and OV-53 cells, respectively."}, "[2]": {"test_system": "primary ovarian cancer cells derived from a tumor excision (OV-53)", "assay": "Matrigel invasion (xCELLigence RTCA), OV-53", "assay_type": "cell-based, human", "conditions": "10 nM, 20 hrs", "procedure": "as §1, §2"}, "ovarian carcinoma SKOV-3": {"test_system": "ovarian carcinoma SKOV-3", "assay": "Trans-endothelial migration through HUVEC monolayer (xCELLigence RTCA), SKOV-3", "assay_type": "cell-based, human", "conditions": "10 nM, 5 hrs", "procedure": "FIG. 9 At the concentration of 10 nM the retro-inverso peptide RI-3 affects trans-endothelial migration of human chondrosarcoma Sarc (A), melanoma A375 (B), ovarian carcinoma SKOV-3 (C) cells, or THP1 monocytes (D), as monitored by the xCELLigence RTCA system (Example 9).\nThe entry of tumor cells into bloodstream is one of the earliest events of the metastatic process. The ability of RI-3 to affect trans-endothelial migration of human chondrosarcoma Sarc (A) melanoma A375 (B), ovarian carcinoma SKOV-3 (C) cells, or THP1 monocytes (D) was monitored by the xCELLigence RTCA system. Human Umbilical Vein Endothelial Cells (HUVEC) (1×10^4 cells/well) suspended in growth medium, were allowed to grow for 20-25 hrs until they form a confluent monolayer, prior to seeding Sarc, A375, SKOV-3, or THP-1 cells (1×10^4 cells/well) in growth medium in the absence (None) or in the presence of 10 nM RI-3. The experiments were performed twice in quadruplicate. When cells cross the endothelial monolayer, there is a drop in electrical resistance which is monitored in real-time for 5 hrs as the cell index changes due to the rupture of endothelial monolayer. All cell lines were able to reduce endothelial monolayer integrity. The addition of 10 nM RI-3 inhibited the capability of Sarc, A375, SKOV-3, and THP-1 cells to disrupt endothelial monolayers by 17%, 22%, 58%, and 36% respectively."}, "HUVECs": {"test_system": "HUVECs", "assay": "Endothelial tube formation on matrigel", "assay_type": "cell-based, human", "conditions": "10 nM", "procedure": "FIG. 10 At the concentration of 10 nM the retro-inverso peptide RI-3 inhibits both FBS (61%) and VEGF-triggered (75%) endothelial tube formation. (A) representative pictures taken with an inverted microscope at 100× magnifications. (B) quantitative analysis (Example 10).\nEndothelial cells undergo morphological differentiation into an extensive network of capillary-like structures consisting of highly organized three-dimensional cords when seeded on matrigel in the presence of a pro-angiogenic stimuli. HUVECs were suspended in medium (CTRL) or medium with 10% FBS or 40 ng/ml VEGF165, without (None) or with 10 nM RI-3 and seeded on matrigel-coated plates for 6 hrs at 37° C., 5% CO2. Representative pictures were taken with an inverted microscope at 100× magnifications. Scale bar: 10 μm (A). Quantitative analysis of tube formation was calculated as a percentage of tubes formed by cord-like structures counted in the absence of any angiogenic stimulus and considered as 100% (CTRL). Data represent means±SD of two independent experiments performed in duplicate. Statistical significance was calculated against none with *p<0.05, **p<0.001 (B). Both FBS and VEGF promoted endothelial tube formation, reaching 352% and 620%, respectively, above basal. The retro-inverso peptide RI-3 reduced FBS- and VEGF-dependent tube formation by 61% and 75%, respectively."}, "human Sarc cells": {"test_system": "human Sarc cells", "assay": "Human Sarc cell tumors in the flank of CD1 nude mice", "assay_type": "in vivo", "conditions": "6 mg/Kg i.p. every day for 10 days", "procedure": "FIG. 11 The intraperitoneal (i.p.) administration of 6 mg/Kg of the retro-inverso peptide RI-3 every day for 10 days reduces in vivo tumor growth and vascular infiltration by human chondrosarcoma Sarc cells in nude mice. (A) Time-dependent average of treated and control mice. (B) Tumor volumes measured at different time points. (C) Tumors excised after 10 days. (D) CD31 immuno-staining of formalin fixed paraffin sections of the excised tumors. (E) Counts of vascular channels harboring red blood cells on CD31 immuno-stained sections. (F) Quantification of Circulating Tumor Cells (CTCs). (Example 11)\nTen six-eight week old, CD1 female nude mice received the injection of human Sarc cells as a single-cell suspension (1×10^6 cells in 100 μl PBS, 96% viability) into the right flank. Five animals received i.p-administration of 6 mg/Kg RI-3 every day for 10 days, and five received injections of vehicle only (CTRL). A. Time-dependent average weight was monitored every two days. B. Tumor volumes measured at different time points with a caliper, using the formula: ½×(width)^2×length (mm). After 10 days, blood samples (˜500 μL/mouse) from the retroorbital venous plexus of mice were collected and processed for determination of Circulating Tumor Cells (CTC)s. Then, animals were sacrificed and the excised tumors (C) were fixed in buffered formalin and processed for paraffin sectioning. Tumor vascularization was assessed by counting vascular channels harbouring red blood cells on CD31 immuno-stained sections (D) in 5 randomly chosen fields per section, in at least two sections per tumor at ×200 (E). To quantify CTCs, DNA from nucleated cells of murine blood samples was purified and quantitated by Real-Time PCR using primers targeting human Alu-sequences. Number of CTCs was calculated by comparing the obtained amplification curves with others generated in spiking experiments, which were included in every run (F).\nTumor volumes of vehicle- and RI-3-treated mice were 445+/−285 and 112+/−41 mm^3, respectively, with p<0.05 (B). After 10 days, animals were sacrificed and tumors excised (C). According with the ability of RI-3 to prevent in vitro formation of a capillary network, the intratumoral microvessel density was reduced in tumors from animals treated with RI-3 as compared to those treated with vehicle alone (D-E)."}},
  "note": "Non-standard residues stand in square brackets, D forms with d. Residues, ends and D or L forms follow the SMILES beside them. Aib = CC(C)(N)C(=O)O",
  "data": [
    {"compound": "CC(=O)N[C@H](Cc1ccc(O)cc1)C(=O)N[C@H](CCCNC(=N)N)C(=O)NC(C)(C)C(=O)N[C@H](CCCNC(=N)N)C(N)=O", "note": "[RI-3, Ac-(D)-Tyr-(D)-Arg-Aib-(D)-Arg-NH2] (Ac-[dY][dR][Aib][dR]-NH2)", "values": [
      {"measurement": "reduction of matrigel invasion", "setting": "[1]", "value": "~53", "unit": "%"},
      {"measurement": "reduction of matrigel invasion", "setting": "[2]", "value": "~68", "unit": "%"},
      {"measurement": "inhibition of the capability to disrupt endothelial monolayers", "setting": "ovarian carcinoma SKOV-3", "value": 58, "unit": "%"},
      {"measurement": "reduction of VEGF-dependent tube formation", "setting": "HUVECs; 40 ng/ml VEGF165, 6 hrs", "value": 75, "unit": "%"},
      {"measurement": "reduction of FBS-dependent tube formation", "setting": "HUVECs; 10% FBS, 6 hrs", "value": 61, "unit": "%"},
      {"measurement": "body weight", "setting": "human Sarc cells", "value": "without clear changes in body weight"},
      {"measurement": "mice with CTCs in blood samples", "setting": "human Sarc cells", "value": "3/5"},
      {"measurement": "reduction of the number of circulating sarcoma cells in murine blood samples", "setting": "human Sarc cells", "value": 74.5, "unit": "%"},
      {"measurement": "signs of toxicity", "setting": "human Sarc cells", "value": "no signs of toxicity"},
      {"measurement": "tumor volume", "setting": "human Sarc cells", "value": "112+/−41 mm^3"},
      {"measurement": "Circulating Tumor Cells in blood", "setting": "human Sarc cells; blood after 10 days", "value": "2.4+/−2 CTCs/mL"},
      {"measurement": "intratumoral microvessel density (CD31)", "setting": "human Sarc cells; vs vehicle", "value": "reduced"}
    ]}
  ]
}
